Assay results reported in PubChem BioAssay AID248 (DTP/NCI, 2004).
Toxic doses and inconclusive results are not listed. Rule as the data show it: active = T/C of 150% or more; inactive = T/C below 125%.

Tested on: L1210 leukemia ip in BDF1 mice, survival T/C
Experiment: NCI In Vivo Anticancer Drug Screen. Data for tumor model L1210 Leukemia (intraperitoneal) in B6D2F1 (BDF1) mice
Conditions: endpoint: mean survival time, higher = longer survival
Method in brief: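 Transplanted-tumor mice were given test agent; controls received vehicle only. Survival readings from the two groups were divided (treated over control).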

[1] = dose: 100.0 mg/kg/injection, schedule: Q01DX001 (ip), vehicle: carboxymethylcellulose (CMC)
[2] = dose: 200.0 mg/kg/injection, schedule: Q01DX001 (ip), vehicle: carboxymethylcellulose (CMC)
[3] = dose: 50.0 mg/kg/injection, schedule: Q01DX001 (ip), vehicle: carboxymethylcellulose (CMC)
[4] = dose: 400.0 mg/kg/injection, schedule: Q01DX001 (ip), vehicle: carboxymethylcellulose (CMC)
[5] = dose: 100.0 mg/kg/injection, schedule: Q01DX001 (ip), vehicle: other
[6] = dose: 200.0 mg/kg/injection, schedule: Q01DX001 (ip), vehicle: other
[7] = dose: 400.0 mg/kg/injection, schedule: Q01DX001 (ip), vehicle: other
[8] = dose: 100.0 mg/kg/injection, schedule: Q01DX009 (ip), vehicle: Klucel (hydroxypropylcellulose) (HPC)
[9] = dose: 100.0 mg/kg/injection, schedule: Q04DX003 (ip), vehicle: Klucel (hydroxypropylcellulose) (HPC)
[10] = dose: 200.0 mg/kg/injection, schedule: Q01DX009 (ip), vehicle: Klucel (hydroxypropylcellulose) (HPC)
[11] = dose: 200.0 mg/kg/injection, schedule: Q04DX003 (ip), vehicle: Klucel (hydroxypropylcellulose) (HPC)
[12] = dose: 400.0 mg/kg/injection, schedule: Q01DX009 (ip), vehicle: Klucel (hydroxypropylcellulose) (HPC)
[13] = dose: 400.0 mg/kg/injection, schedule: Q04DX003 (ip), vehicle: Klucel (hydroxypropylcellulose) (HPC)
[14] = dose: 100.0 mg/kg/injection, schedule: Q04DX002 (ip), vehicle: Klucel (hydroxypropylcellulose) (HPC)
[15] = dose: 200.0 mg/kg/injection, schedule: Q04DX002 (ip), vehicle: Klucel (hydroxypropylcellulose) (HPC)
[16] = dose: 400.0 mg/kg/injection, schedule: Q04DX002 (ip), vehicle: Klucel (hydroxypropylcellulose) (HPC)
[17] = dose: 100.0 mg/kg/injection, schedule: Q04DX003 (ip), vehicle: saline with Tween-80
[18] = dose: 200.0 mg/kg/injection, schedule: Q04DX003 (ip), vehicle: saline with Tween-80
[19] = dose: 200.0 mg/kg/injection, schedule: Q01DX001 (ip), vehicle: saline
[20] = dose: 400.0 mg/kg/injection, schedule: Q01DX001 (ip), vehicle: saline
[21] = dose: 100.0 mg/kg/injection, schedule: Q01DX001 (ip), vehicle: saline
[22] = dose: 25.0 mg/kg/injection, schedule: Q04DX003 (ip), vehicle: saline
[23] = dose: 50.0 mg/kg/injection, schedule: Q04DX003 (ip), vehicle: saline
[24] = dose: 100.0 mg/kg/injection, schedule: Q04DX003 (ip), vehicle: saline
[25] = dose: 75.0 mg/kg/injection, schedule: Q01DX001 (ip), vehicle: saline
[26] = dose: 150.0 mg/kg/injection, schedule: Q01DX001 (ip), vehicle: saline
[27] = dose: 100.0 mg/kg/injection, schedule: Q01DX009 (ip), vehicle: saline with Tween-80
[28] = dose: 200.0 mg/kg/injection, schedule: Q01DX009 (ip), vehicle: saline with Tween-80
[29] = dose: 400.0 mg/kg/injection, schedule: Q01DX009 (ip), vehicle: saline with Tween-80

Measured: T/C

CC/C(=N/Nc1ccc([N+](=O)[O-])cc1[N+](=O)[O-])c1cccs1
inactive: [1] 100 % of control | [2] 97 % of control

Oc1ccc(Cl)cc1C1N(Cc2ccc(N(CCCl)CCCl)cc2Cl)CCCN1Cc1ccc(N(CCCl)CCCl)cc1Cl
inactive: [3] 113 % of control | [1] 96 % of control | [2] 105 % of control | [4] 96 % of control

CCC#CC(O)(C(=O)OCC)C1CCCCC1 (stereo not given)
inactive: [5] 104 % of control | [6] 96 % of control | [7] 104 % of control

CCCC(=O)C(C)C(=O)C(F)(F)F.CCCC(=O)C(C)C(=O)C(F)(F)F.CCCC(=O)C(C)C(=O)C(F)(F)F.[Er] (stereo not given)
inactive: [8] 116 % of control | [9] 98 % of control | [10] 102 % of control | [11] 94 % of control | [12] 113 % of control | [13] 94 % of control

NC(=O)c1ccccc1NC(=O)Nc1cccc(C(F)(F)F)c1
inactive: [8] 86 % of control | [14] 102 % of control | [10] 89 % of control | [15] 105 % of control | [12] 93 % of control | [16] 108 % of control

CCCCC(O)(C#CC(O)(CC)CCCC)CC (stereo not given)
inactive: [5] 103 % of control | [6] 105 % of control | [7] 102 % of control

[Ni+2].[O-]c1ccc(Cl)cc1C=NCc1ccccn1.[O-]c1ccc(Cl)cc1C=NCc1ccccn1
inactive: [17] 93 % of control | [18] 93 % of control

O=C(O)c1nsnc1C(=O)O
inactive: [19] 102 % of control | [20] 103 % of control

O=c1cc(-c2ccccc2)nc(Nc2nc3ccc([N+](=O)[O-])cc3[nH]2)[nH]1
inactive: [8] 95 % of control | [9] 100 % of control | [10] 95 % of control | [11] 103 % of control | [12] 87 % of control | [13] 106 % of control

O=[N+]([O-])c1ccccc1C1ON1C1CCCCC1 (stereo not given)
inactive: [21] 97 % of control | [19] 97 % of control | [20] 90 % of control

CC(Cl)(S(=O)c1ccccc1)C1(O)CCCCC1 (stereo not given)
inactive: dose: 100.0 mg/kg/injection, schedule: Q03DX002 (ip), vehicle: saline with Tween-80 113 % of control | dose: 200.0 mg/kg/injection, schedule: Q03DX002 (ip), vehicle: saline with Tween-80 102 % of control | dose: 400.0 mg/kg/injection, schedule: Q03DX002 (ip), vehicle: saline with Tween-80 105 % of control

Nc1c(Br)cc(Br)cc1Br
inactive: [8] 96 % of control | [9] 106 % of control | [10] 96 % of control | [11] 92 % of control | [12] 98 % of control | [13] 97 % of control

O=C(NC12CC3CC(CC(C3)C1)C2)C(O)C(O)C(O)C(O)CO (stereo not given)
inactive: [21] 110 % of control | [19] 100 % of control | [20] 100 % of control

O=S(=O)(c1ccccc1)c1ccc(O)cc1
inactive: dose: 50.0 mg/kg/injection, schedule: Q01DX001 (ip), vehicle: saline 95 % of control | [21] 89 % of control | [19] 108 % of control | [20] 101 % of control

CCOc1ccc(/C=C2\N=C(c3ccccc3)OC2=O)cc1
inactive: [8] 98 % of control | [9] 100 % of control | [10] 88 % of control | [11] 100 % of control | [12] 93 % of control | [13] 98 % of control

CCN(CC)Cc1cc(C(=N)N)ccc1O
inactive: dose: 56.0 mg/kg/injection, schedule: Q01DX Z (ip), vehicle: carboxymethylcellulose (CMC) 101 % of control | dose: 83.0 mg/kg/injection, schedule: Q01DX Z (ip), vehicle: carboxymethylcellulose (CMC) 95 % of control | dose: 125.0 mg/kg/injection, schedule: Q01DX Z (ip), vehicle: carboxymethylcellulose (CMC) 98 % of control | dose: 187.5 mg/kg/injection, schedule: Q01DX Z (ip), vehicle: carboxymethylcellulose (CMC) 102 % of control

NC(N)=NNO
inactive: [21] 88 % of control | [19] 95 % of control | [20] 101 % of control

Cc1ccc(S/C=C/Sc2ccc(C)cc2)cc1
inactive: [14] 99 % of control | [15] 99 % of control | [16] 99 % of control

O=[N+]([O-])c1cnccc1Nc1ccncc1
inactive: [17] 98 % of control | [18] 94 % of control

O=P(O)(c1ccccc1)c1cccc(Cl)c1
inactive: [17] 100 % of control | [18] 91 % of control | dose: 400.0 mg/kg/injection, schedule: Q04DX003 (ip), vehicle: saline with Tween-80 94 % of control

CSc1ncc2cnccn12
inactive: dose: 25.0 mg/kg/injection, schedule: Q01DX009 (ip), vehicle: water 95 % of control | [22] 106 % of control | dose: 50.0 mg/kg/injection, schedule: Q01DX009 (ip), vehicle: water 102 % of control | [23] 101 % of control | dose: 100.0 mg/kg/injection, schedule: Q01DX009 (ip), vehicle: water 102 % of control | [24] 101 % of control | dose: 100.0 mg/kg/injection, schedule: Q04DX003 (ip), vehicle: water 93 % of control

CC(C)(C)NC(=O)C1C2CCC1C2Cl (stereo not given)
inactive: [25] 96 % of control | [26] 92 % of control | dose: 300.0 mg/kg/injection, schedule: Q01DX001 (ip), vehicle: saline 90 % of control

C=CCc1ccc(OC(C)=O)c(OC)c1
inactive: [21] 96 % of control | [19] 98 % of control | [20] 108 % of control

Oc1ccc(Br)cc1/C=N\NC(=S)Nc1ccc2cn[nH]c2c1
inactive: dose: 25.0 mg/kg/injection, schedule: Q01DX001 (ip), vehicle: carboxymethylcellulose (CMC) 90 % of control | [3] 101 % of control | [1] 93 % of control | [2] 86 % of control | [4] 107 % of control

O=C1NC(=O)C(c2ccccn2)N1 (stereo not given)
inactive: [27] 91 % of control | [28] 91 % of control | [29] 94 % of control

CCN(CC)CCOc1ccccc1Br
inactive: dose: 12.5 mg/kg/injection, schedule: Q04DX003 (ip), vehicle: saline 97 % of control | dose: 25.0 mg/kg/injection, schedule: Q01DX009 (ip), vehicle: saline 95 % of control | [22] 96 % of control | dose: 50.0 mg/kg/injection, schedule: Q01DX009 (ip), vehicle: saline 98 % of control | [23] 97 % of control | [24] 100 % of control

COC(=O)N/N=C/c1ccccc1OC
inactive: [14] 104 % of control | [15] 104 % of control | [16] 93 % of control

CN(C)c1ccc(C=O)c(Br)c1
inactive: [8] 96 % of control | [9] 96 % of control | [10] 91 % of control | [11] 111 % of control | [12] 103 % of control | [13] 100 % of control

CCCCC(=O)NC1CCCCC1
inactive: [25] 101 % of control | [26] 95 % of control

CC(C)=COC(=N)C(N)=O
inactive: dose: 100.0 mg/kg/injection, schedule: Q04DX003 (ip), vehicle: other 100 % of control | dose: 200.0 mg/kg/injection, schedule: Q04DX003 (ip), vehicle: other 97 % of control | dose: 400.0 mg/kg/injection, schedule: Q04DX003 (ip), vehicle: other 115 % of control

CC(C)c1ccc(C(=O)C(O)c2ccc(C(C)C)cc2)cc1 (stereo not given)
inactive: [27] 93 % of control | [28] 97 % of control | [29] 97 % of control

CCC[CH2][Sn]([CH2]C)([CH2]C)[O]C(C)=O
inactive: dose: 5.0 mg/kg/injection, schedule: Q01DX001 (ip), vehicle: saline with Tween-80 90 % of control | dose: 10.0 mg/kg/injection, schedule: Q01DX001 (ip), vehicle: saline with Tween-80 93 % of control
